Reference: ChEMBL document CHEMBL1697781, “Assessment of the health effects of chemicals in humans: II. Construction of an adverse effects database for QSAR modeling” (Curr Drug Discov Technol, 2004)

What was measured:
Conditions in all cases: human
Hepatotoxicity [1] = test: FDA HLAED, liver enzyme composite activity
Hepatotoxicity [2] = test: FDA HLAED, alkaline phosphatase increase
Hepatotoxicity [3] = test: FDA HLAED, serum glutamic oxaloacetic transaminase (SGOT) increase
Hepatotoxicity [4] = test: FDA HLAED, serum glutamic pyruvic transaminase (SGPT) increase
Hepatotoxicity [5] = test: FDA HLAED, lactate dehydrogenase (LDH) increase
Hepatotoxicity [6] = test: FDA HLAED, gamma-glutamyl transferase (GGT) increase

C[C@H]1[C@H](NC(=O)/C(=N\OC(C)(C)C(=O)O)c2csc(N)n2)C(=O)N1S(=O)(=O)O [AZTREONAM]
>= 4: Alkaline Phosphatase Increase - Number of Reports (Hepatotoxicity [2]) | SGOT Increase - Number of Reports (Hepatotoxicity [3]) | SGPT Increase - Number of Reports (Hepatotoxicity [4])
0.6: LDH Increase - Index Value (Hepatotoxicity [5]) | GGT Increase - Index Value (Hepatotoxicity [6])
Inactive: Composite Activity - Score (Hepatotoxicity [1]) | LDH Increase - Activity Score (Hepatotoxicity [5]) | GGT Increase - Activity Score (Hepatotoxicity [6])
< 4: LDH Increase - Number of Reports (Hepatotoxicity [5]) | GGT Increase - Number of Reports (Hepatotoxicity [6])
2: Composite Activity - Marginal (Hepatotoxicity [1])
6.9: Alkaline Phosphatase Increase - Index Value (Hepatotoxicity [2])
Marginally Active: SGOT Increase - Activity Score (Hepatotoxicity [3]) | SGPT Increase - Activity Score (Hepatotoxicity [4])
3.8: SGPT Increase - Index Value (Hepatotoxicity [4])
3.2: SGOT Increase - Index Value (Hepatotoxicity [3])
Active: Alkaline Phosphatase Increase - Activity Score (Hepatotoxicity [2])
1: Composite Activity - Active (Hepatotoxicity [1])

CCOC(=O)OC(C)OC(=O)[C@@H]1N2C(=O)[C@@H](NC(=O)[C@H](N)c3ccccc3)[C@H]2SC1(C)C (stereo partly drawn) [BACAMPICILLIN]
< 4: Alkaline Phosphatase Increase - Number of Reports (Hepatotoxicity [2]) | SGOT Increase - Number of Reports (Hepatotoxicity [3]) | SGPT Increase - Number of Reports (Hepatotoxicity [4]) | LDH Increase - Number of Reports (Hepatotoxicity [5]) | GGT Increase - Number of Reports (Hepatotoxicity [6])
Inactive: Composite Activity - Score (Hepatotoxicity [1]) | Alkaline Phosphatase Increase - Activity Score (Hepatotoxicity [2]) | SGOT Increase - Activity Score (Hepatotoxicity [3]) | SGPT Increase - Activity Score (Hepatotoxicity [4]) | LDH Increase - Activity Score (Hepatotoxicity [5]) | GGT Increase - Activity Score (Hepatotoxicity [6])
0: Composite Activity - Active (Hepatotoxicity [1]) | Composite Activity - Marginal (Hepatotoxicity [1]) | Alkaline Phosphatase Increase - Index Value (Hepatotoxicity [2]) | SGOT Increase - Index Value (Hepatotoxicity [3]) | SGPT Increase - Index Value (Hepatotoxicity [4]) | LDH Increase - Index Value (Hepatotoxicity [5]) | GGT Increase - Index Value (Hepatotoxicity [6])

C[C@H]1C[C@H]2[C@@H]3CCC4=CC(=O)C=C[C@]4(C)[C@@]3(Cl)[C@@H](O)C[C@]2(C)[C@@]1(O)C(=O)CO [BECLOMETHASONE]
Inactive: Composite Activity - Score (Hepatotoxicity [1]) | Alkaline Phosphatase Increase - Activity Score (Hepatotoxicity [2]) | SGOT Increase - Activity Score (Hepatotoxicity [3]) | SGPT Increase - Activity Score (Hepatotoxicity [4]) | LDH Increase - Activity Score (Hepatotoxicity [5]) | GGT Increase - Activity Score (Hepatotoxicity [6])
0: Composite Activity - Active (Hepatotoxicity [1]) | Composite Activity - Marginal (Hepatotoxicity [1]) | Alkaline Phosphatase Increase - Index Value (Hepatotoxicity [2]) | SGOT Increase - Index Value (Hepatotoxicity [3]) | SGPT Increase - Index Value (Hepatotoxicity [4]) | LDH Increase - Index Value (Hepatotoxicity [5]) | GGT Increase - Index Value (Hepatotoxicity [6])
< 4: Alkaline Phosphatase Increase - Number of Reports (Hepatotoxicity [2]) | SGOT Increase - Number of Reports (Hepatotoxicity [3]) | SGPT Increase - Number of Reports (Hepatotoxicity [4]) | LDH Increase - Number of Reports (Hepatotoxicity [5]) | GGT Increase - Number of Reports (Hepatotoxicity [6])

CCOC(=O)[C@H](CCc1ccccc1)N[C@H]1CCc2ccccc2N(CC(=O)O)C1=O [BENAZEPRIL]
< 4: Alkaline Phosphatase Increase - Number of Reports (Hepatotoxicity [2]) | SGOT Increase - Number of Reports (Hepatotoxicity [3]) | SGPT Increase - Number of Reports (Hepatotoxicity [4]) | LDH Increase - Number of Reports (Hepatotoxicity [5]) | GGT Increase - Number of Reports (Hepatotoxicity [6])
0.3: Alkaline Phosphatase Increase - Index Value (Hepatotoxicity [2])
0: Composite Activity - Active (Hepatotoxicity [1]) | Composite Activity - Marginal (Hepatotoxicity [1]) | SGOT Increase - Index Value (Hepatotoxicity [3]) | SGPT Increase - Index Value (Hepatotoxicity [4])
0.2: LDH Increase - Index Value (Hepatotoxicity [5]) | GGT Increase - Index Value (Hepatotoxicity [6])
Inactive: Composite Activity - Score (Hepatotoxicity [1]) | Alkaline Phosphatase Increase - Activity Score (Hepatotoxicity [2]) | SGOT Increase - Activity Score (Hepatotoxicity [3]) | SGPT Increase - Activity Score (Hepatotoxicity [4]) | LDH Increase - Activity Score (Hepatotoxicity [5]) | GGT Increase - Activity Score (Hepatotoxicity [6])

CC(C)COCC(CN(Cc1ccccc1)c1ccccc1)N1CCCC1 (stereo not drawn) [BEPRIDIL]
27.1: LDH Increase - Index Value (Hepatotoxicity [5])
Inactive: Composite Activity - Score (Hepatotoxicity [1]) | Alkaline Phosphatase Increase - Activity Score (Hepatotoxicity [2]) | SGOT Increase - Activity Score (Hepatotoxicity [3]) | SGPT Increase - Activity Score (Hepatotoxicity [4]) | LDH Increase - Activity Score (Hepatotoxicity [5]) | GGT Increase - Activity Score (Hepatotoxicity [6])
< 4: Alkaline Phosphatase Increase - Number of Reports (Hepatotoxicity [2]) | SGOT Increase - Number of Reports (Hepatotoxicity [3]) | SGPT Increase - Number of Reports (Hepatotoxicity [4]) | LDH Increase - Number of Reports (Hepatotoxicity [5]) | GGT Increase - Number of Reports (Hepatotoxicity [6])
0: Composite Activity - Active (Hepatotoxicity [1]) | Composite Activity - Marginal (Hepatotoxicity [1]) | Alkaline Phosphatase Increase - Index Value (Hepatotoxicity [2]) | SGOT Increase - Index Value (Hepatotoxicity [3]) | SGPT Increase - Index Value (Hepatotoxicity [4]) | GGT Increase - Index Value (Hepatotoxicity [6])

CC(C)NCC(O)COc1ccc(CCOCC2CC2)cc1 (stereo not drawn) [BETAXOLOL]
< 4: Alkaline Phosphatase Increase - Number of Reports (Hepatotoxicity [2]) | SGOT Increase - Number of Reports (Hepatotoxicity [3]) | SGPT Increase - Number of Reports (Hepatotoxicity [4]) | LDH Increase - Number of Reports (Hepatotoxicity [5]) | GGT Increase - Number of Reports (Hepatotoxicity [6])
Inactive: Composite Activity - Score (Hepatotoxicity [1]; Liver) | Alkaline Phosphatase Increase - Activity Score (Hepatotoxicity [2]) | SGOT Increase - Activity Score (Hepatotoxicity [3]) | SGPT Increase - Activity Score (Hepatotoxicity [4]) | LDH Increase - Activity Score (Hepatotoxicity [5]) | GGT Increase - Activity Score (Hepatotoxicity [6])
0: Composite Activity - Active (Hepatotoxicity [1]; Liver) | Composite Activity - Marginal (Hepatotoxicity [1]; Liver) | Alkaline Phosphatase Increase - Index Value (Hepatotoxicity [2]) | SGOT Increase - Index Value (Hepatotoxicity [3]) | SGPT Increase - Index Value (Hepatotoxicity [4]) | LDH Increase - Index Value (Hepatotoxicity [5]) | GGT Increase - Index Value (Hepatotoxicity [6])
